Columns and labels:
L1210 [1] = test: Antileukemic activity against L1210 cells in culture at a concentration of 10e-4 M; Active; type: functional, cell-based, Mus musculus
L1210 [2] = test: Antileukemic activity against L1210 cells in culture at a concentration of 10e-4 M; Inactive; type: functional, cell-based, Mus musculus
L1210 [3] = test: Antileukemic activity against L1210 cells in culture at a concentration of 5 X 10e-4 M; extremely weak; type: functional, cell-based; conditions: Mus musculus

SMILES	IC50 (L1210 [2])	also measured
C[C@H]1O[C@@H](n2cnc3c(N)ncnc32)[C@H](O)[C@@H](O)[C@H]1O	–	IC50 (L1210 [1]): Active
Nc1ncnc2c1ncn2C1OC(CO)C(O)C(O)C1O (stereo unspecified)	Not Active	–
C[C@@H]1O[C@@](CO)(n2cnc3c(N)ncnc32)[C@@H](O)[C@@H]1O	Not Active	–
Nc1ncnc2c1ncn2C1OCC(O)C(O)C1O (stereo unspecified)	–	inhibition (L1210 [3]): Extremely weak

Further lines, with some results ahead:

IC50 (L1210 [2])	SMILES	also measured
Not Active	C[C@H]1O[C@@H](n2cnc3c(N)ncnc32)[C@H](O)[C@@H](O)[C@@H]1O	–
Not Active	C[C@@H]1O[C@@H](n2cnc3c(N)ncnc32)[C@H](O)[C@H](O)[C@@H]1O	–
